In patent US20250197399A1, “COMPOUNDS, COMPOSITIONS, AND METHODS” (Tenvie Therapeutics, Inc., priority 2022, published 2025):
Where two headings read alike, the source gives them in different places.

System: NLRP3
Experiment: IL-1β secretion assay in PMA-differentiated, LPS/nigericin-stimulated THP-1 cells (ELISA)
Format: cell-based
Conditions: 25 ng/mL LPS then nigericin, IL-1β in supernatant
Summary of the method: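 PMA-differentiated (5 ng/mL, 40 h) THP-1 cells primed with 25 ng/mL LPS in serum-free medium for 2 h, then compound (0.5% DMSO) for 1 h before nigericin, 2 h at 37 °C. Supernatant IL-1β measured by sandwich ELISA; dose-response normalized to LPS+nigericin high and LPS-only low controls.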

[1] = THP-1 cells, read-out: Activity
[2] = THP-1 cells, read-out: Activity (IC50 class)
[3] = Homo sapiens, THP-1, THP-1 cells, read-out: Activity
[4] = Homo sapiens, THP-1, THP-1 cells, read-out: Activity (IC50 class)

SMILES | IC50 [1] | IC50 [2] | IC50 [3] | IC50 [4]
O=C(CN1CC2(CC2(F)F)c2c(ccc(Br)c2F)C1=O)Nc1nc2ccccn2n1 (single isomer, unassigned) [Example 31, N-([1,2,4]triazolo[1,5-a]pyridin-2-yl)-2-[6-bromo-1′,1′,5-trifluoro-1-oxospiro[3H-isoquinoline-4,2′-cyclopropane]-2-yl]acetamide] | 33 nM | < 1000 nM |  | 
Cc1cnc(NC(=O)CN2CC3(CC3(F)F)c3c(ccc(Br)c3F)C2=O)nc1 (single isomer, unassigned) [Example 32, N-(5-methylpyrimidin-2-yl)-2-[6-bromo-1′,1′,5-trifluoro-1-oxospiro[3H-isoquinoline-4,2′-cyclopropane]-2-yl]acetamide] | 28600 nM | > 10000 nM |  | 
O=C(CN1CC2(CC2)c2c(ccc(Br)c2F)C1=O)Nc1ncc2cn[nH]c2n1 [Example 46, 2-(6-bromo-5-fluoro-1-oxospiro[3H-isoquinoline-4,1′-cyclopropane]-2-yl)-N-(1H-pyrazolo[3,4-d]pyrimidin-6-yl)acetamide] |  |  | 38 nM | < 1000 nM
O=C(CN1CC2(CC2)c2c(ccc(Br)c2F)C1=O)Nc1ccc2nn[nH]c2c1 [Example 61, N-(3H-benzotriazol-5-yl)-2-(6-bromo-5-fluoro-1-oxospiro[3H-isoquinoline-4,1′-cyclopropane]-2-yl)acetamide] |  |  | 162 nM | < 1000 nM
O=C(CN1CC2(CC2)c2cc(Br)ccc2C1=O)Nc1ncc2cn[nH]c2n1 [Example 42, 2-(6-bromo-1-oxo-spiro[3H-isoquinoline-4,1′-cyclopropane]-2-yl)-N-(1H-pyrazolo[3,4-d]pyrimidin-6-yl)acetamide] |  |  | 61 nM | < 1000 nM
Cc1cnc(NC(=O)CN2C[C@]3(C[C@H]3F)c3c(ccc(Cl)c3F)C2=O)nc1 (single isomer, unassigned) [Example 44, 2-[(2′s,4r)-6-chloro-2′,5-difluoro-1-oxospiro[3H-isoquinoline-4,1′-cyclopropane]-2-yl]-N-(5-methylpyrimidin-2-yl)acetamide] |  |  | 113 nM | < 1000 nM
O=C(CN1C[C@]2(C[C@H]2F)c2cc(Br)ccc2C1=O)Nc1ncc2cn[nH]c2n1 [Example 54, 2-[(2′R,4S)-6-bromo-2′-fluoro-1-oxospiro[3H-isoquinoline-4,1′-cyclopropane]-2-yl]-N-(1H-pyrazolo[3,4-d]pyrimidin-6-yl)acetamide] |  |  | 5 nM | < 1000 nM
O=C(CN1CC2(CC2(F)F)c2c(ccc(C(F)(F)F)c2F)C1=O)Nc1ncc(Cl)cn1 (single isomer, unassigned) [Example 14, N-(5-chloropyrimidin-2-yl)-2-[1′,1′,5-trifluoro-6-(trifluoromethyl)-1-oxospiro[3H-isoquinoline-4,2′-cyclopropane]-2-yl]acetamide] |  | > 10000 nM |  | 
